Laboratory results: patent US20250019379A1, “NEW CRYSTAL FORM OF COMPOUND, AND PREPARATION METHOD THEREFOR AND USE THEREOF” (E-nitiate Biopharmaceuticals (Hangzhou) Co., Ltd, priority 2021, published 2025)
Where “and” joins values, the source holds several entries; their conditions need not be identical. Equal values may be shown once. Marks after values point to notes of the source that are not given here.

Experiments:
[1] = Hygroscopicity experiment; format: physicochemical; details: Chinese Pharmacopoeia 2020, General Chapter 9103
Procedure: The hygroscopicity data of the samples were collected using the ADVENTURE series dynamic gas phase adsorption instrument under N2 protection. The sample dosage is about 30 mg.
The hygroscopicity of the above crystalline form was determined with reference to the 2020 edition of the Chinese Pharmacopoeia, General Chapter 9103, Guidelines for Drug Hygroscopicity Tests.

[2] = system: psoriasis animal model; experiment: Psoriasis animal model (imiquimod cream induced); format: in vivo, C57/BL 6J mice; details: for Inhibition rate of skin thickening: 7th day of treatment
Source text: C57/BL 6J mice, 75, female, 7-8 weeks old, weight 18 g-20 g. The animals were from Zhejiang Weitong Lihua Experimental Animal Technology Co., Ltd. (SCXK (Zhejiang) 2019-0001), experimental animal production certificate number 20210107Abzz0619000247; experimental animal use license number: SYXK (Shanghai) 2020-0001 (Via Biotechnology (Shanghai Co., Ltd).
Modeling and administration method: Use depilatory cream to remove hair from an area of about 2 cm×3 cm on the back of each animal. Control the application time of depilatory cream within 2 minutes. Wash the depilated area with warm water, wash off the depilatory agent, and use immediately. Dry the animal's hair with a hair dryer, and place the animal on a constant-temperature electric blanket at 37° C. for 1 h-2 h. After the animal moves freely, it is placed in a cage for normal rearing and recovery for 1 day (if any animal has red, swollen and damaged skin after hair removal, remove it). On the second day, 54 animals with normal skin were selected and randomly grouped according to body weight, with 9 animals in each group, a total of 6 groups. Each animal in the G2-G6 group was evenly applied with 60 mg (60 μL) of 5 wt % imiquimod cream (Aldara) on the back every day for seven consecutive days.
Skin thickness (double-layer): Use a vernier caliper to measure the double-layer thickness of the back skin before drug administration and modeling, and on days 1, 3, 5, and 7 after drug administration.
PASI score: The condition score refers to the clinical PASI scoring standard, and scores three indicators: erythema, scale, and thickness. The total score is 12 points. The scoring standards are as follows:
Erythema: 0 points, none; 1 points, slight: light red; 2 points, moderate: red; 3 points, significant: dark red; 4 points, very obvious: extremely deep red.
Scaling: 0 points, none; 1 point, slight: there are scales on part of the epidermis, mainly fine scales; 2 points, moderate: most of the skin surface is completely or incompletely covered with scales, in a flaky form; 3 points, Significant: almost all skin is covered with scales, and the scales are thick and layered; 4 points, very obvious: all the skin is covered with scales, and the scales are thick and layered.
Plaque thickening degree: 0 points, none: flush with normal skin; 1 points, slight: slightly higher than the skin surface: 2 points, moderate: moderately raised, with round or sloped plaque edges; 3 points, obvious Score: The plaque is hypertrophic and the bulge is obvious; 4 points, very significant: it is highly thickened and the bulge is very obvious.
Skin proliferation inhibition rate (%)=1−[(skin thickness of the treatment group on the 7th day−skin thickness of the blank control group on the 7th day)/skin thickness of the negative control group on the 7th day−skin thickness of the blank control group on the 7th day)]%.
All data are expressed as Mean t SEM. The statistical analysis software SPSS23.0 was used to conduct normal distribution and homogeneity of variance tests on the data. Based on the results, the single-factor analysis of variance method was selected and the homogeneity of variance test was selected based on the results. *P<0.05 will be considered a statistically significant difference.

[3] = Influencing factors test (light, high temperature, high humidity); format: physicochemical
Procedure: The stability of the crystalline form of the present invention under accelerated test conditions was determined. […] Stability testing was conducted under the following conditions, and samples were taken on the 0th day, the 5th day, the 10th day and the 30th day. The content, total impurities, and XRPD patterns of the samples were recorded and compared with the initial data.

[4] = 0.5 mg/kg oral twice a day, Day 0
[5] = 0.5 mg/kg oral twice a day, Day 1
[6] = 0.5 mg/kg oral twice a day, Day 3
[7] = 0.5 mg/kg oral twice a day, Day 5
[8] = 0.5 mg/kg oral twice a day, Day 7
[9] = 1.5 mg/kg oral twice a day, Day 0
[10] = 1.5 mg/kg oral twice a day, Day 1
[11] = 1.5 mg/kg oral twice a day, Day 3
[12] = 1.5 mg/kg oral twice a day, Day 5
[13] = 1.5 mg/kg oral twice a day, Day 7
[14] = 1.5 mg/kg oral twice a day, Day 7, listed as crystalline form A
[15] = 5 mg/kg oral twice a day, Day 0
[16] = 5 mg/kg oral twice a day, Day 1
[17] = 5 mg/kg oral twice a day, Day 3
[18] = 5 mg/kg oral twice a day, Day 5
[19] = 5 mg/kg oral twice a day, Day 7
[20] = 5 mg/kg oral twice a day, Day 7, listed as crystalline form A
[21] = High humidity test (25° C., 90 ± 5% RH), 5 d
[22] = High humidity test (25° C., 90 ± 5% RH), 10 d
[23] = High humidity test (25° C., 90 ± 5% RH), 30 d
[24] = High temperature test (60° C.), 5 d
[25] = High temperature test (60° C.), 10 d
[26] = High temperature test (60° C.), 30 d
[27] = Light test (Illuminance 5000 Lx and UV lamp energy 0.9 W/m^2), 5 d
[28] = Light test (Illuminance 5000 Lx and UV lamp energy 0.9 W/m^2), 10 d
[29] = Light test (Illuminance 5000 Lx and UV lamp energy 0.9 W/m^2), 30 d

hygroscopicity class [1]: no or almost no hygroscopicity
weight gain (hygroscopicity) [1]: 0.05%
Content (%) ([3]; 0 d): 99.1%
Total impurity ([3]; 0 d): 0.325%
stability under accelerated test conditions (content, total impurities, XRPD) ([3]; 5000Lx light, 60° C., 90% RH±5% RH, 0, 5, 10, 30 days): better stability
Content (%) [3, 21]: 100.1%
Total impurity [3, 21]: 0.32%
Content (%) [3, 22]: 100.1%
Total impurity [3, 22]: 0.31%
Content (%) [3, 23]: 100.1%
Total impurity [3, 23]: 0.32%
Content (%) [3, 24]: 100.2%
Total impurity [3, 24]: 0.34%
Content (%) [3, 25]: 100.4%
Total impurity [3, 25]: 0.33%
Content (%) [3, 26]: 100.3%
Total impurity [3, 26]: 0.35%
Content (%) [3, 27]: 99.5%
Total impurity [3, 27]: 0.34%
Content (%) [3, 28]: 98.9%
Total impurity [3, 28]: 0.36%
Content (%) [3, 29]: 99.4%
Total impurity [3, 29]: 0.43%
SMILES: C[C@@H](O)c1nc2cnc3[nH]ccc3c2n1N1CCC(CC#N)CC1 [Crystalline form A, (R)-2-(1-(2-(1-hydroxyethyl)imidazo[4,5-d]pyrrolo[2,3-b]pyridine-1(6H)-yl)piperidin-4-yl)acetonitrile]
Inhibition rate of skin thickening ([2]; 0.5 mg/kg oral twice a day): 34.6%
Average skin thickness (double layer) [2, 4]: 0.50 ± 0.01 mm
PASI score [2, 4]: 0.0 points
Average skin thickness (double layer) [2, 5]: 0.60 ± 0.01 mm
PASI score [2, 5]: 0.0 points
Average skin thickness (double layer) [2, 6]: 1.57 ± 0.11 mm
PASI score [2, 6]: 6.6 ± 0.69 points
Average skin thickness (double layer) [2, 7]: 1.27 ± 0.1*** mm
PASI score [2, 7]: 5.9 ± 0.79** points
Average skin thickness (double layer) [2, 8]: 1.32 ± 0.09 mm and 1.32 mm
PASI score [2, 8]: 6.1 ± 0.56*** points
PASI score ([2]; 0.5 mg/kg oral twice a day, Day 7, listed as crystalline form A): 6.1 points
Inhibition rate of skin thickening ([2]; 1.5 mg/kg oral twice a day): 56.4%
Inhibition rate of skin thickening ([2]; 1.5 mg/kg oral twice a day, listed as crystalline form A): 56.4%
Average skin thickness (double layer) [2, 9]: 0.50 ± 0.01 mm
PASI score [2, 9]: 0.0 points
Average skin thickness (double layer) [2, 10]: 0.61 ± 0.02 mm
PASI score [2, 10]: 0.0 points
Average skin thickness (double layer) [2, 11]: 1.76 ± 0.15 mm
PASI score [2, 11]: 6.1 ± 0.56 points
Average skin thickness (double layer) [2, 12]: 1.53 ± 0.08** mm
PASI score [2, 12]: 7.0 ± 0.53 points
Average skin thickness (double layer) [2, 13]: 1.15 ± 0.04** mm and 1.15 mm
PASI score [2, 13]: 4.9 ± 0.39*** points
Average skin thickness (double layer) [2, 14]: 1.15 mm
PASI score [2, 14]: 4.9 points
Inhibition rate of skin thickening ([2]; 5 mg/kg oral twice a day): 71.8%
Inhibition rate of skin thickening ([2]; 5 mg/kg oral twice a day, listed as crystalline form A): 71.8%
Average skin thickness (double layer) [2, 15]: 0.50 ± 0.01 mm
PASI score [2, 15]: 0.0 points
Average skin thickness (double layer) [2, 16]: 0.64 ± 0.01 mm
PASI score [2, 16]: 0.0 points
Average skin thickness (double layer) [2, 17]: 1.35 ± 0.10* mm
PASI score [2, 17]: 4.9 ± 0.48 points
Average skin thickness (double layer) [2, 18]: 1.24 ± 0.11*** mm
PASI score [2, 18]: 4.7 ± 0.58*** points
Average skin thickness (double layer) [2, 19]: 1.03 ± 0.03*** mm and 1.03 mm
PASI score [2, 19]: 3.6 ± 0.44*** points
Average skin thickness (double layer) [2, 20]: 1.03 mm
PASI score [2, 20]: 3.6 points
